In publication PMC12615753, “Glutathione as a taste modulator: molecular mechanisms of interaction with umami and sweet taste receptors” (Food Chemistry: Molecular Sciences, 2025):

Molecular target: T1, hTAS1R1 H308A/rTAS1R3 (Homo sapiens, UniProt Q7RTX1, H308A)
T1 construct: UniProtKB number Q7RTX1–1); expressed in transfected cells; host or cells: HEK293T/17 (ATCC CRL-11268)
T1 sequence (Q7RTX1 21-841 H308A): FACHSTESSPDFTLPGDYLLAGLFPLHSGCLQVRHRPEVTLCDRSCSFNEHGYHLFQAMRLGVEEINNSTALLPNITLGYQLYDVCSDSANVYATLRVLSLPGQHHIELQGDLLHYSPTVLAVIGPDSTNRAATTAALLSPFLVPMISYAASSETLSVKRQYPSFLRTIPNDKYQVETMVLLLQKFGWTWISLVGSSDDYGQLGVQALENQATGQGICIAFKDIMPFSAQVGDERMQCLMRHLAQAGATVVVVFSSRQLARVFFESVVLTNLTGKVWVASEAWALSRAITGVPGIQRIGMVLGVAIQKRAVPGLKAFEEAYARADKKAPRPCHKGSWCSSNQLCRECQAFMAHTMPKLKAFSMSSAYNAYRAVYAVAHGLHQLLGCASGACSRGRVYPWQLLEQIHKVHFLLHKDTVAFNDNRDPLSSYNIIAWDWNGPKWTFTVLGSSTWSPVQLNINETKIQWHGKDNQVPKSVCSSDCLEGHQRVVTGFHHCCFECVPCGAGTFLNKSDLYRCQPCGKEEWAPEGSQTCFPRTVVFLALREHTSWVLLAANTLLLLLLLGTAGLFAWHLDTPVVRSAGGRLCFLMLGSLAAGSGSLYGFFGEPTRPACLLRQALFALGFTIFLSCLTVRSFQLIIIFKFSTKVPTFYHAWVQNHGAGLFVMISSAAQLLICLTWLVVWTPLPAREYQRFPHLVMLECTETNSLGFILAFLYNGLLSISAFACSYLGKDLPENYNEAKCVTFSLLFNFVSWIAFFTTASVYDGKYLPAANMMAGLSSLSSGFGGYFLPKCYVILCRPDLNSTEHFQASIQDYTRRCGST
T1 sequence (Q923K1 21-858 partner): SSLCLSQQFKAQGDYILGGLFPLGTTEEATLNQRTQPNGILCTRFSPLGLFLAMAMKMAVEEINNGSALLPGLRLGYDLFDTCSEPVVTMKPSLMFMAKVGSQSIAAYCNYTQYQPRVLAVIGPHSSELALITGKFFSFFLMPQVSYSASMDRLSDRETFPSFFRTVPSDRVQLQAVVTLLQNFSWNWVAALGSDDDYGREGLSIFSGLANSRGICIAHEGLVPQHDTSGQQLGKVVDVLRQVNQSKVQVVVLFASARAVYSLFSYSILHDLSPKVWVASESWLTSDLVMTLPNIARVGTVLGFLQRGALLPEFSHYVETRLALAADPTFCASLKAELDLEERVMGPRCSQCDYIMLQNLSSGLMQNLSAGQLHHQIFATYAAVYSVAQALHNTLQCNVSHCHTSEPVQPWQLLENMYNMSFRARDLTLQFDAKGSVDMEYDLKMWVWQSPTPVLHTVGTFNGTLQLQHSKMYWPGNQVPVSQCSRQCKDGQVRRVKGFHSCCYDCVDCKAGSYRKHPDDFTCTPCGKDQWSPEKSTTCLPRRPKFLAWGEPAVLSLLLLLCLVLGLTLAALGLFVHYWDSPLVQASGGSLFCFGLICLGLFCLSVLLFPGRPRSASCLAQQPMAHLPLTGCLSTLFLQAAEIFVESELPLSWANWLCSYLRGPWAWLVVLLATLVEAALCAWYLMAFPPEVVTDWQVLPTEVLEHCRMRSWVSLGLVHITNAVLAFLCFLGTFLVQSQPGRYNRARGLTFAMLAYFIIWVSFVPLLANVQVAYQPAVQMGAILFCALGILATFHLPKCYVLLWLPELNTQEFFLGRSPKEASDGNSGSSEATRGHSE
Experiment: Calcium assay, hTAS1R1 mutant co-expressed with rTAS1R3
Type: cell-based, rat
Text: Chimeric Gα proteins, such as Gα16Gust44, Gα16Gi3 or Gα15i2, are widely used in the functional expression of TAS1R receptors ([Backes et al., 2015]; [Suess et al., 2015]; [Toda et al., 2021], [Toda et al., 2013], [Toda et al., 2018]; [Zhang et al., 2008]). Chimeric Gα15i2 (([Toda et al., 2013]), Supplementary data) was generated by replacing the last five residues of the C-terminal tail of rat Gα15i2 (EINLL) (UniProt number G3V6N8; https://www.uniprot.org/uniprot/) with the counterpart sequence from human GNAI2 (DCGLF) (UniProt number P04899-1) and cloning into the pcDNA3.1/Hygro vector (Invitrogen, Thermo Fisher Scientific, Illkirch, France) between the HindIII and NotI restriction sites, resulting in the plasmid pcDNA3.1-Gα15i2. Chimeric Gα16Gust44 construct have already been reported ([Raliou et al., 2011]). Briefly, Gα16Gust44 was generated by replacing the C-terminal of Gα16 with the C-terminal 44 residues of gustducin. As previously described, hTAS1R1 was amplified from human fungiform papillae cDNA and cloned and inserted into pcDNA3 (Invitrogen), generating pcDNA3-TAS1R1-WT (wild-type) ([Raliou et al., 2011]). […] The cDNA coding region of rTAS1R3 was synthesized with optimized-codon usage for human expression (Genewiz) and was cloned and inserted into the mammalian pcDNA4/myc-HisA (Invitrogen) expression vector between the EcoRI and NotI restriction sites, resulting in the plasmid pcDNA4-rTAS1R3. […] The sequence integrity of all the plasmid constructs was verified via automated DNA sequencing (Genewiz).
The hTAS1R1 mutants were co-expressed with the rTAS1R3 subunit in HEK293 cells. […] As a control, the functionality of the mutated receptors was checked after stimulation with S807 (Fig. S8), which interacts with TAS1R1-TMD ([Zhang et al., 2008]).

response to the agonist alone, vs WT (H308A)	SMILES	EC50 [mM]	effect of the added compound (1 mM) on the response to L-Glu (H308A)	Max ∆F/F0 (H308A, GSH)	R1 = mutant EC50/WT EC50 (H308A, GSH)
strongly affected	CCCC(CCC)NC(=O)c1ccc2c(c1)OCO2 [S807, N-(heptan-4-yl)benzo[d][1,3]dioxole-5-carboxamide, reference compound]	–	–	–	–
–	N[C@@H](CCC(=O)N[C@@H](CS)C(=O)NCC(=O)O)C(=O)O [GSH, γ-L-glutamyl-L-cysteinyl-glycine]	3.25 ± 0.225	synergy was observed	0.42 ± 0.01	1.3
